In paper PMC6017025, “Pharmacokinetics of Schizandrin and Its Pharmaceutical Products Assessed Using a Validated LC–MS/MS Method” (Molecules : A Journal of Synthetic Chemistry and Natural …, 2018):
Where two headings read alike, the source gives them in different places.

Key:
[1] = Stability of schizandrin stock solution; format: physicochemical; settings: up to 1 month at −20 °C
Procedure: (§1) Three concentrations (low, medium, and high) were evaluated for stability. The schizandrin concentrations of 5, 50, and 500 ng/mL were used in the method validation.

[2] = Pharmacokinetics of schizandrin in plasma of freely moving rats after i.v./oral schizandrin or oral S. chinensis product (LC-MS/MS, noncompartmental analysis); format: in vivo, rat
Procedure: All experimental protocols involving animals were reviewed and approved by the Institutional Animal Care and Use Committee (IACUC number: 1060813) of National Yang-Ming University. Male Sprague-Dawley rats were obtained from the Laboratory Animal Center of the National Yang-Ming University, Taipei, Taiwan. The animals had free access to food (laboratory rodent diet 5P14, PMI Feeds, Richmond, IN) and water. Six Sprague-Dawley rats (220–240 g) were anesthetized with pentobarbital (50 mg/kg, i.p.) for cannulation. Surgical sites were shaved and disinfected with 70% ethanol solution, and a polyethylene tube (PE50) was implanted into the right jugular vein for collecting blood samples. The cannula were exteriorized and fixed in the dorsal region of the neck. Patency of the tube was maintained by flushing with heparinized saline (20 IU/mL). Rats were allowed to recover 24 h prior to drug administration. Schizandrin was dissolved in 10%DMSO and triply deionized water and administered by gastric gavage at a dose of 10 mg/kg. Schizandrin was dissolved in 10%ethanoland triply deionized water and administered by intravenous injection at a dose of 10 mg/kg. The S. chinensis pharmaceutical product was dissolved in triply deionized water and administered by gastric gavage at a dose of 3 g/kg and 10 g/kg (equivalent to 5.2 mg/kg and 17.3 mg/kg schizandrin).The gavage administration of S. chinensis volume was 3 mL. A 200 μL blood sample was withdrawn from the right jugular vein […] into a heparin-rinsed vial at 5, 15, 30, 45, 60, 90, 120, 150, 180, 240, 360 and 480 min. Blood samples were centrifuged at 6000× g for 10 min at 4 °C. The biological samples were stored at −20 °C before analysis.
Each blood sample (50 μL) was mixed with 1 mL of ethyl acetate and vortexed for 5 min. The mixture was centrifuged at 16000× g for 10 min at 4 °C. The supernatant (1 mL) was transferred to an Eppendorf vial and dried at 40 °C in a centrifugation evaporator. The dried sample was reconstituted in 190 μL of methanol and IS solution (methyl yellow, 5 ng/mL in methanol) and filtered through a 0.22 μm filter. Finally, the filtrate (10 μL) was applied to the UPLC-MS/MS system for analysis.
The LC–MS/MS analysis was performed using a Waters Acquity UPLC™ system (Waters Co., Manchester, UK) consisting of binary solvent manager, an automatic liquid chromatographic sampler and a Waters Xevo^TM tandem quadrupole mass spectrometry equipped with an electrospray ionization (ESI) source. The chromatography was performed on a Purospher® STAR RP-18 endcapped (100 mm × 2.1 mm, 2 μm, Merck KGaA, Darmstadt, Germany) analytical column and maintained at 40 °C in a column oven. The mobile phase consisted of 0.1% formic acid-methanol (15:85, v/v), and the flow rate was set at 0.2 mL/min. The injection volume was 10 μL. The positive ion mode with a multiple reaction monitor (MRM) was used for UPLC-MS/MS analysis. The following precursor-to-product ion transitions were used: m/z 433.22→415.19 for schizandrin and m/z 226.26→76.91 for methyl yellow (internal standard, IS).The instrument parameters were optimized as follows: capillary voltage, 3.2 kV; desolvation gas, nitrogen; desolvation temperature, 400 °C; desolvation gas flow rate, 800 L/h; cone voltage, 18 V; collision energy, 12 V and source temperature, 150 °C. MassLynx 4.1 software (Waters Corporation, Milford, MA, USA) was used for data processing.
Pharmacokinetic calculations were performed on each individual set of data using the pharmacokinetic software WinNonlin Standard Edition, version 1.1 (Scientific Consulting Inc., Apex, NC, USA) by noncompartmental methods for intravenous and oral administration. The results were analyzed using Student’s t-test and the SigmaPlot program (version 13). All data are presented as the mean ± standard deviation (SD).

[3] = Stability of schizandrin in rat plasma (method validation); format: in vitro ADME; settings: for Autosampler Stability / Short-Term Stability / Freeze-Thaw Stability / Long-Term Stability: rat plasma, in % (unit assumed); for Autosampler Stability: 10 °C for 24 h in autosampler; for Short-Term Stability: room temperature for 12 h; for Long-Term Stability: −20 °C for 1 month
Procedure: as §1
Stability was evaluated under four conditions: […]; […]; long-term stability kept at −80 °C for 1 month; and freeze-thaw stability: three samples were frozen and stored at −20 °C for 24 h and then thawed at room temperature. After repeating this cycle three times, the samples were analyzed by UHPLC-MS/MS.

[4] = male, Sprague-Dawley, iv, schizandrin 10 mg/kg, rat plasma, n = 6
[5] = male, Sprague-Dawley, po, schizandrin 10 mg/kg, rat plasma, n = 6
[6] = schizandrin 10 mg/kg, p.o., rat plasma, n = 6

COc1cc2c(c(OC)c1OC)-c1c(cc(OC)c(OC)c1OC)C[C@](C)(O)[C@@H](C)C2 [schizandrin]
stability of stock solution [1]: stable
concentration at 15 min ([2]; male, Sprague-Dawley, intravenous, plasma sample from jugular vein of a rat at 15 min after 10 mg/kg, i.v. (Figure 2C)): 31.8 ng/mL
AUC [2, 4]: 718 ng·h/mL
MRT [2, 4]: 34.8 min
clearance [2, 4]: 240 ± 30 mL/min/kg
half-life [2, 4]: 42.2 ± 14.8 min
clearance ([2]; male, Sprague-Dawley, plasma, schizandrin intravenous group (10 mg/kg), rat): 90 mL/min
AUC [2, 5]: 112 ng·h/mL
Cmax [2, 5]: 60 ± 30 ng/mL
MRT [2, 5]: 113 min
half-life [2, 5]: 74.7 ± 33.6 min
bioavailability ([2]; male, Sprague-Dawley, rat, plasma, oral, 10 mg/kg, schizandrin 10 mg/kg, p.o. vs 10 mg/kg i.v., rat, read-out: F (bioavailability)): ~15.6%
Tmax ([2]; male, Sprague-Dawley, rat, plasma, po, 10 mg/kg, schizandrin 10 mg/kg, p.o., rat plasma, n = 6, read-out: Tmax): ≤ 30 min
clearance (CL) ([2]; schizandrin 10 mg/kg orally, rat): 340 ± 1240 mL/min/kg
CL [2, 6]: 340 ± 1240 mL/min/kg
Tmax [2, 6]: 22.50 ± 12.55 min
degradation in biological samples ([3]; autosampler 24 h at 10 °C, 12 h at room temperature, 1 month at −80 °C, three freeze-thaw cycles): No significant degradation
Autosampler Stability ([3]; 5 ng/mL): −1.78 ± 2.25
Short-Term Stability ([3]; 5 ng/mL): −1.63 ± 8.36
Freeze-Thaw Stability ([3]; 5 ng/mL, three freeze-thaw cycles): −8.04 ± 3.19
Long-Term Stability ([3]; 5 ng/mL): −0.56 ± 0.39
Autosampler Stability ([3]; 50 ng/mL): 3.17 ± 3.19
Short-Term Stability ([3]; 50 ng/mL): 5.70 ± 4.52
Freeze-Thaw Stability ([3]; 50 ng/mL, three freeze-thaw cycles): −5.16 ± 3.83
Long-Term Stability ([3]; 50 ng/mL): −9.02 ± 0.40
Autosampler Stability ([3]; 500 ng/mL): 0.43 ± 0.12
Short-Term Stability ([3]; 500 ng/mL): 0.64 ± 0.08
Freeze-Thaw Stability ([3]; 500 ng/mL, three freeze-thaw cycles): −0.63 ± 0.30
Long-Term Stability ([3]; 500 ng/mL): −6.75 ± 6.39
